Where a SMILES comes first, the peptide text is derived from it.
Tests used:
Type in all cases: functional
[1] = tested on: Escherichia coli; assay: Antibacterial activity against Escherichia coli ATCC 25922 assessed as ciprofloxacin MIC incubated for 24 hrs by microbroth dilution assay
[2] = tested on: Klebsiella pneumoniae; assay: Antibacterial activity against imipenem resistant Klebsiella pneumoniae ATCC BAA 1705 assessed as reduction in microbial growth incubated for 24 hrs by microbroth dilution method
[3] = tested on: Staphylococcus aureus; assay: Antibacterial activity against Staphylococcus aureus ATCC BAA -1556 assessed as daptomycin MIC incubated for 24 hrs by microbroth dilution assay
[4] = tested on: Escherichia coli; assay: Synergistic antibacterial activity against Escherichia coli ATCC 25922 assessed as fractional inhibitory concentration index incubated for 24 hrs in presence of meropenem by checkerboard assay
[5] = tested on: Pseudomonas aeruginosa; assay: Antibacterial activity against Pseudomonas aeruginosa ATCC 27883 assessed as tobramycin MIC incubated for 24 hrs by microbroth dilution assay
[6] = tested on: Klebsiella pneumoniae; assay: Synergistic antibacterial activity against Klebsiella pneumoniae ATCC BAA 1705 assessed as fractional inhibitory concentration index incubated for 24 hrs in presence of tobramycin by checkerboard assay
[7] = tested on: Pseudomonas aeruginosa; assay: Synergistic antibacterial activity against Pseudomonas aeruginosa ATCC 27883 assessed as fractional inhibitory concentration index incubated for 24 hrs in presence of vancomycin by checkerboard assay
[8] = tested on: Klebsiella pneumoniae; assay: Antibacterial activity against Klebsiella pneumoniae ATCC BAA 1705 assessed as clindamycin MIC incubated for 24 hrs by microbroth dilution assay
[9] = tested on: Klebsiella pneumoniae; assay: Synergistic antibacterial activity against Klebsiella pneumoniae ATCC 13883 assessed as fractional inhibitory concentration index incubated for 24 hrs in presence of meropenem by checkerboard assay
[10] = tested on: Klebsiella pneumoniae; assay: Antibacterial activity against Klebsiella pneumoniae ATCC BAA 1705 assessed as levofloxacin MIC incubated for 24 hrs by microbroth dilution assay

N=C(N)NCCC[C@@H]1NC(=O)[C@H](CCCNC(=N)N)NC(=O)[C@H](CCCNC(=N)N)NC(=O)[C@H](CCCNC(=N)N)NC(=O)[C@H](Cc2c[nH]c3ccccc23)NC(=O)[C@H](Cc2c[nH]c3ccccc23)NC(=O)[C@H](Cc2c[nH]c3ccccc23)NC(=O)[C@H](Cc2c[nH]c3ccccc23)NC(=O)[C@H](CCCCN)NC(=O)[C@H](CCCNC(=N)N)NC1=O (cyclo(KWWWWRRRRR))
MIC [1]: 8 µg/mL | MIC [2]: 32 µg/mL | MIC [3]: 0.5 µg/mL | fractional inhibitory concentration index (FICI) [4]: 1.25 | MIC [5]: 0.125 µg/mL | fractional inhibitory concentration index (FICI) [6]: 0.375 | fractional inhibitory concentration index (FICI) [7]: 0.531 | MIC [8]: 2 µg/mL | fractional inhibitory concentration index (FICI) [9]: 0.625 | MIC [10]: 8 µg/mL
